Test results as given in US20050112573A1, “Method of detecting toxic substance” (priority 2001, published 2005).

Test system: yeast genes (level of expressed mRNA)
Assay: DNA chip analysis of expressed mRNA of yeast genes after 2 h culture with a toxic chemical substance
Assay type: cell-based, Saccharomyces cerevisiae S288C
Procedure: Yeast (Saccharomyces cerevtisiae S288C (α SUC2mal mel gap2 CUP1)) were cultured at 25° C. on YPD medium (yeast extract 1%, polypepton 2%, glucose 2%). One of toxic chemical substances was added to the cell at logarithmic growth phase, and the cell was further cultured for two hours. Cell was cultured without any chemical substance in the same condition, and was used as control. Concentrations of the chemical substances were defined to inhibit the growth of the yeast but not lead to death.
After the completion of cultivation, the culture was centrifuged to collect the cells. To the cells, sodium acetate buffer (50 mM sodium acetate, 10 mM EDTA, 1% SDS) was added, and the mixture was shaken at 65° C. for five minutes, followed by returning to room temperature, and obtaining the supernatant, which procedure was repeated two times. To the supernatant, ½ amount of a solution of phenol/chloroform was added, and the mixture was centrifuged to give a supernatant, which was added with an equal amount of chloroform, and the mixture was centrifuged to give a supernatant. To the supernatant, an equal amount of isopropanol containing 0.3 M sodium acetate was added, and the mixture was allowed to stand at room temperature for 30 minutes, after which the mixture was centrifuged to give a sediment of the whole RNAs. Seventy % ethanol was added to the sediment, and the mixture was again centrifuged to give a sediment, which was then dried and dissolved in water. mRNA was isolated from the whole RNAs as followings. In view of the fact that a poly A chain is attached to the 3′ terminus of mRNA, a polynucleotide having a poly T structure which was immobilized on the surface of latex beads was used to trap the mRNA, and then the mRNA was washed and eluted with spine column (Oligotex-dT30<Super>mRNA Purification Kit, Takara). Reverse transcription of the mRNA was conducted with a reverse transcriptase (Super Script II Reverse Transcriptase; catalogue No. 18064-014, GibcoBRL) using fluorescence-labeled nucleotides to give cDNAs that were introduced with Cy3-dUTP or Cy5-dUTP during the reverse transcription.
The labeled cDNAs were dissolved in TE buffer (10 mM Tris-HCl/1 mM EDTA, pH8.0), and the solution was dropped on the DNA chip containing the whole genes of yeast (DNA Chip Research Inc. Japan) so that the cDNAs were hybridized on the DNA chip at 65° C. for over 12 hours. The fluoresces intensity of the DNA chip was read with a scanner, and the ratio relative to the fluorescence intensity resulting from the absence of chemical substance was estimated as the following, which is shown in Tables 1 to 9: [formula]
In the Tables, “Intensity” indicated in the rightmost column is a value of the level of expressed mRNA of each gene in control cells as divided by the average level of the expressions of the whole genes.

**Q.** Which “The level of expressed mRNA in the presence of chemical substance/The level of expressed mRNA in the absence of chemical substance” value (yeast gene YAR010C) does the source give for `N#Cc1c(Cl)c(Cl)c(Cl)c(C#N)c1Cl` [(9), 2,4,5,6-tetrachloro-1,3-benzenedicarbonitrile] here?
**A.** Its value is 1.2.

**Q.** What about the “The level of expressed mRNA in the presence of chemical substance/The level of expressed mRNA in the absence of chemical substance” value (yeast gene YBL005W-A) of the same compound?
**A.** Its value is 0.8.

**Q.** What about the “The level of expressed mRNA in the presence of chemical substance/The level of expressed mRNA in the absence of chemical substance” value (yeast gene YBL041W) of the same compound?
**A.** Its value is 2.8.

**Q.** And the “The level of expressed mRNA in the presence of chemical substance/The level of expressed mRNA in the absence of chemical substance” value (yeast gene YBL043W)?
**A.** The value was 0.5.

**Q.** And the “The level of expressed mRNA in the presence of chemical substance/The level of expressed mRNA in the absence of chemical substance” value (yeast gene YBL078C)?
**A.** Its value is 12.3.

**Q.** And the “The level of expressed mRNA in the presence of chemical substance/The level of expressed mRNA in the absence of chemical substance” value (yeast gene YBR214W)?
**A.** The value was 2.2.

**Q.** And the “The level of expressed mRNA in the presence of chemical substance/The level of expressed mRNA in the absence of chemical substance” value (yeast gene YCL020W)?
**A.** Its value is 0.9.

**Q.** What about the “The level of expressed mRNA in the presence of chemical substance/The level of expressed mRNA in the absence of chemical substance” value (yeast gene YCL027W) of the same compound?
**A.** Its value is 0.7.

**Q.** And the “The level of expressed mRNA in the presence of chemical substance/The level of expressed mRNA in the absence of chemical substance” value (yeast gene YCR004C)?
**A.** The value was 4.7.

**Q.** What about the “The level of expressed mRNA in the presence of chemical substance/The level of expressed mRNA in the absence of chemical substance” value (yeast gene YCR071C) of the same compound?
**A.** Its value is 0.6.

**Q.** What about the “The level of expressed mRNA in the presence of chemical substance/The level of expressed mRNA in the absence of chemical substance” value (yeast gene YCR088W) of the same compound?
**A.** Its value is 0.8.

**Q.** What about the “The level of expressed mRNA in the presence of chemical substance/The level of expressed mRNA in the absence of chemical substance” value (yeast gene YDL008W) of the same compound?
**A.** Its value is 2.3.

**Q.** And the “The level of expressed mRNA in the presence of chemical substance/The level of expressed mRNA in the absence of chemical substance” value (yeast gene YDL238C)?
**A.** The value was 1.7.

**Q.** What about the “The level of expressed mRNA in the presence of chemical substance/The level of expressed mRNA in the absence of chemical substance” value (yeast gene YDR055W) of the same compound?
**A.** The value was 0.8.

**Q.** What about the “The level of expressed mRNA in the presence of chemical substance/The level of expressed mRNA in the absence of chemical substance” value (yeast gene YDR084C) of the same compound?
**A.** The value was 0.6.

**Q.** What about the “The level of expressed mRNA in the presence of chemical substance/The level of expressed mRNA in the absence of chemical substance” value (yeast gene YDR085C) of the same compound?
**A.** The value was 0.4.

**Q.** And the “The level of expressed mRNA in the presence of chemical substance/The level of expressed mRNA in the absence of chemical substance” value (yeast gene YDR104C)?
**A.** Its value is 2.8.

**Q.** What about the “The level of expressed mRNA in the presence of chemical substance/The level of expressed mRNA in the absence of chemical substance” value (yeast gene YDR115W) of the same compound?
**A.** Its value is 1.1.

**Q.** What about the “The level of expressed mRNA in the presence of chemical substance/The level of expressed mRNA in the absence of chemical substance” value (yeast gene YDR259C) of the same compound?
**A.** Its value is 1.0.

**Q.** And the “The level of expressed mRNA in the presence of chemical substance/The level of expressed mRNA in the absence of chemical substance” value (yeast gene YDR315C)?
**A.** The value was 1.1.

**Q.** And the “The level of expressed mRNA in the presence of chemical substance/The level of expressed mRNA in the absence of chemical substance” value (yeast gene YDR358W)?
**A.** Its value is 2.9.

**Q.** What about the “The level of expressed mRNA in the presence of chemical substance/The level of expressed mRNA in the absence of chemical substance” value (yeast gene YDR388W) of the same compound?
**A.** The value was 1.4.

**Q.** What about the “The level of expressed mRNA in the presence of chemical substance/The level of expressed mRNA in the absence of chemical substance” value (yeast gene YDR432W) of the same compound?
**A.** Its value is 0.7.

**Q.** And the “The level of expressed mRNA in the presence of chemical substance/The level of expressed mRNA in the absence of chemical substance” value (yeast gene YDR481C)?
**A.** Its value is 1.9.

**Q.** What about the “The level of expressed mRNA in the presence of chemical substance/The level of expressed mRNA in the absence of chemical substance” value (yeast gene YDR510W) of the same compound?
**A.** The value was 2.7.

**Q.** What about the “The level of expressed mRNA in the presence of chemical substance/The level of expressed mRNA in the absence of chemical substance” value (yeast gene YEL042W) of the same compound?
**A.** The value was 0.2.

**Q.** And the “The level of expressed mRNA in the presence of chemical substance/The level of expressed mRNA in the absence of chemical substance” value (yeast gene YEL066W)?
**A.** Its value is 1.3.

**Q.** What about the “The level of expressed mRNA in the presence of chemical substance/The level of expressed mRNA in the absence of chemical substance” value (yeast gene YER039C) of the same compound?
**A.** Its value is 1.2.

**Q.** And the “The level of expressed mRNA in the presence of chemical substance/The level of expressed mRNA in the absence of chemical substance” value (yeast gene YER107C)?
**A.** The value was 0.4.

**Q.** And the “The level of expressed mRNA in the presence of chemical substance/The level of expressed mRNA in the absence of chemical substance” value (yeast gene YER130C)?
**A.** The value was 0.5.

**Q.** What about the “The level of expressed mRNA in the presence of chemical substance/The level of expressed mRNA in the absence of chemical substance” value (yeast gene YFL028C) of the same compound?
**A.** The value was 2.7.

**Q.** What about the “The level of expressed mRNA in the presence of chemical substance/The level of expressed mRNA in the absence of chemical substance” value (yeast gene YFL043C) of the same compound?
**A.** Its value is 2.2.

**Q.** And the “The level of expressed mRNA in the presence of chemical substance/The level of expressed mRNA in the absence of chemical substance” value (yeast gene YGL229C)?
**A.** Its value is 1.8.

**Q.** What about the “The level of expressed mRNA in the presence of chemical substance/The level of expressed mRNA in the absence of chemical substance” value (yeast gene YGR136W) of the same compound?
**A.** Its value is 2.1.

**Q.** What about the “The level of expressed mRNA in the presence of chemical substance/The level of expressed mRNA in the absence of chemical substance” value (yeast gene YGR189C) of the same compound?
**A.** Its value is 0.3.

**Q.** And the “The level of expressed mRNA in the presence of chemical substance/The level of expressed mRNA in the absence of chemical substance” value (yeast gene YGR213C)?
**A.** Its value is 7.5.

**Q.** And the “The level of expressed mRNA in the presence of chemical substance/The level of expressed mRNA in the absence of chemical substance” value (yeast gene YGR257C)?
**A.** Its value is 1.5.

**Q.** And the “The level of expressed mRNA in the presence of chemical substance/The level of expressed mRNA in the absence of chemical substance” value (yeast gene YHR004C)?
**A.** Its value is 1.1.

**Q.** And the “The level of expressed mRNA in the presence of chemical substance/The level of expressed mRNA in the absence of chemical substance” value (yeast gene YHR071W)?
**A.** Its value is 1.0.

**Q.** And the “The level of expressed mRNA in the presence of chemical substance/The level of expressed mRNA in the absence of chemical substance” value (yeast gene YHR139C)?
**A.** The value was 107.2.

**Q.** What about the “The level of expressed mRNA in the presence of chemical substance/The level of expressed mRNA in the absence of chemical substance” value (yeast gene YHR142W) of the same compound?
**A.** Its value is 0.4.

**Q.** What about the “The level of expressed mRNA in the presence of chemical substance/The level of expressed mRNA in the absence of chemical substance” value (yeast gene YIL123W) of the same compound?
**A.** Its value is 0.1.

**Q.** And the “The level of expressed mRNA in the presence of chemical substance/The level of expressed mRNA in the absence of chemical substance” value (yeast gene YIL140W)?
**A.** The value was 0.7.

**Q.** And the “The level of expressed mRNA in the presence of chemical substance/The level of expressed mRNA in the absence of chemical substance” value (yeast gene YJL073W)?
**A.** The value was 1.7.

**Q.** What about the “The level of expressed mRNA in the presence of chemical substance/The level of expressed mRNA in the absence of chemical substance” value (yeast gene YJL089W) of the same compound?
**A.** The value was 1.6.

**Q.** And the “The level of expressed mRNA in the presence of chemical substance/The level of expressed mRNA in the absence of chemical substance” value (yeast gene YJL116C)?
**A.** The value was 2.4.

**Q.** And the “The level of expressed mRNA in the presence of chemical substance/The level of expressed mRNA in the absence of chemical substance” value (yeast gene YJR004C)?
**A.** Its value is 0.3.

**Q.** What about the “The level of expressed mRNA in the presence of chemical substance/The level of expressed mRNA in the absence of chemical substance” value (yeast gene YJR086W) of the same compound?
**A.** The value was 1.4.

**Q.** What about the “The level of expressed mRNA in the presence of chemical substance/The level of expressed mRNA in the absence of chemical substance” value (yeast gene YKL008C) of the same compound?
**A.** Its value is 0.3.

**Q.** What about the “The level of expressed mRNA in the presence of chemical substance/The level of expressed mRNA in the absence of chemical substance” value (yeast gene YKL013C) of the same compound?
**A.** Its value is 1.5.
